In publication PMC3598492, “Cannabinoid receptor type 2 (CB2)-selective N-aryl-oxadiazolyl-propionamides: synthesis, radiolabelling, molecular modelling and biological evaluation” (Organic and Medicinal Chemistry Letters, 2012):
Read-outs that look alike come from different tables or passages of the source.

Legend:
hCB2 = molecular target: T1, hCB2 (Homo sapiens, UniProt P34972); experiment: Competitive [3H]CP55,940 binding on membrane homogenates of hCB2-CHO cells; details: for Binding to hCB2 in words: hCB2-CHO; for Selectivity, pKi (CB2) – pKi (CB1): pKi = -log (Ki)
T1 construct: host or cells: CHO (hCB2-CHO), crude membrane homogenates
Procedure: (§1) CHO cell lines stably transfected with human CB1 (hCB1-CHO; obtained from Euroscreen, Gosselies, Belgium) or human CB2 (hCB2-CHO; obtained from Paul L. Prather, Department of Pharmacology and Toxicology, College of Medicine, University of Arkansas for Medical Sciences, USA) were cultured in Ham's F12 medium or Dulbecco's modified Eagle's medium (DMEM) with 10% fetal calf serum, 100 IU/mL penicillin, 100 μg/mL streptomycin and 250 or 400 μg/mL of the selection antibiotic Geneticin (G418), respectively. The cells were cultured in a humidified atmosphere with 5% CO2 at 37°C. Confluent cell layers of 175-cm^2 flasks were scraped; cells were harvested by centrifugation (800 rpm, 3 min), counted by trypan blue staining, suspended in 200 μL of 50 mM tris(hydroxymethyl)aminomethane (TRIS; pH 7.4) at 4°C and stored at −32°C until the binding experiment.
(§2) Competitive binding experiments were performed with crude membrane homogenates obtained from hCB1-CHO or hCB2-CHO cells as described above. […] Incubations were terminated by rapid filtration through a GF-B glass fibre filter pre-incubated for 90 min at room temperature in freshly prepared 0.5% polyvinylpyrrolidone + 0.1% Tween 20 solution using a 48-well cell harvester (Brandel, Gaithersburg, MD, USA).
The corresponding inhibition constants (Ki) of test compounds were derived from the IC50 values using the Cheng-Prusoff equation [49]. All binding experiments were performed in triplicates, and data are given as mean values from independent experiments.

hCB1 = molecular target: T2, hCB1 (Homo sapiens, UniProt P21554); experiment: Competitive [3H]CP55,940 binding on membrane homogenates of hCB1-CHO cells
T2 construct: host or cells: CHO (hCB1-CHO), crude membrane homogenates
Procedure: as §1, §2
Binding data were analysed using GraphPad Prism version 2.01 (GraphPad Software, Inc., San Diego, CA, USA) by non-linear regression to provide estimates of the half maximal inhibitory concentration (IC50) values and the […]. […] The corresponding inhibition constants (Ki) of test compounds were derived from the IC50 values using the Cheng-Prusoff equation [49]. All binding experiments were performed in triplicates, and data are given as mean values from independent experiments.

[1] = molecular target: T3, CB2 receptors in mouse spleen tissue (Mus musculus, UniProt P47936); experiment: Autoradiographic displacement of [3H]CP55,940 on coronal mouse spleen sections; assay type: binding; details: for Displacement of the specific binding of 6 nM [3H]CP55,940: mouse spleen sections, HD regions
T3 construct: 12-μm-thick coronal sections obtained from the spleens of three animals; from tissue; host or cells: spleen sections of female CD-1 mice
Procedure: Animal experiments were performed under procedures approved by the State of Saxony Animal Care and Use Committee and conducted in accordance with the German Law for the Protection of Animals. Female CD-1 mice (10 to 12 weeks old, 20 to 25 g), obtained from the Medizinisch-Experimentelles Zentrum der Universität Leipzig (Leipzig, Germany), were used for the experiments.
The animals were anesthetized and sacrificed, and their spleens were rapidly removed and frozen in isopentane at −35°C. The spleens were brought to −15°C in a cryostat (Microm International GmbH, Walldorf, Germany), and a series of 12-μm-thick coronal sections obtained from the spleens of three animals were collected in parallel on microscopic glass slides. The sections were dried at room temperature and stored at −35°C until they were processed for receptor binding autoradiography.
For autoradiographic experiments, the slides were brought to room temperature, dried in a stream of cold air, pre-incubated in a binding buffer (50 mM TRIS (pH 7.4) at 21°C, 5% BSA) for 15 min at room temperature and dried again in a stream of cold air. […] Samples were washed twice for 30 min at 4°C in 50 mM TRIS (pH 7.4) at 4°C, containing 1% BSA, dipped briefly in ice-cold deionized water (5 s), dried in a stream of cold air and exposed along with [^3H] standards (Amersham/GE Healthcare, Piscataway, NJ, USA) for 14 days to [^3H]-sensitive screen plates (Fuji Photo Film, Co. Ltd., Tokyo, Japan).
The image plates were analysed using a BAS-1800II system bioimaging analyser (Fuji Photo Film, Co. Ltd., Tokyo, Japan). Scan data were visualized and processed by computer-assisted microdensitometry (Aida version 2.31, Raytest Isotopenmessgeräte GmbH, Straubenhardt, Germany). Irregular regions of interest (ROIs) were drawn on selected areas of the spleen labelled as red pulp (low-density binding) and white pulp (high-density binding) according to Lynn and Herkenham and Massi et al..

[2] = read-out: Affinity (Ki) towards hCB2
[3] = read-out: Affinity (Ki) towards hCB1

T3 sequence (P47936 whole entry): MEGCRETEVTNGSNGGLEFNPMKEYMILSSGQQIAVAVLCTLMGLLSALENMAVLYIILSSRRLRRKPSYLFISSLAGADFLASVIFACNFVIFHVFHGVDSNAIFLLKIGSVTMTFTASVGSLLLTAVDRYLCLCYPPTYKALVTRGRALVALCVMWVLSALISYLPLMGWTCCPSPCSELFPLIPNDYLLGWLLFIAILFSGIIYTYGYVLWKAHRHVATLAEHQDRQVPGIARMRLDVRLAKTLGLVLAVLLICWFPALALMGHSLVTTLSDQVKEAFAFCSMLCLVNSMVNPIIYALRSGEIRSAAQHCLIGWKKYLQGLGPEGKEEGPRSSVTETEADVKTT
T1 sequence (P34972 whole entry): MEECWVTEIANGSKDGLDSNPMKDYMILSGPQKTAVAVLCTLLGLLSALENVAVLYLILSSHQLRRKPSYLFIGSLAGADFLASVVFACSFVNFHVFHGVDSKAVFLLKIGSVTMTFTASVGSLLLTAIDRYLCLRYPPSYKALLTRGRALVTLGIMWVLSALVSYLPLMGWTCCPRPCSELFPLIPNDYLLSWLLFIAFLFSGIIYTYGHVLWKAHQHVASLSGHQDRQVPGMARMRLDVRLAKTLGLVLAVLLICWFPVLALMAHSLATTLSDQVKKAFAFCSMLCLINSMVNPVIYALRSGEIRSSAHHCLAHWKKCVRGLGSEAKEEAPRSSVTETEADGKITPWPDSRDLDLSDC
T2 sequence (P21554 whole entry): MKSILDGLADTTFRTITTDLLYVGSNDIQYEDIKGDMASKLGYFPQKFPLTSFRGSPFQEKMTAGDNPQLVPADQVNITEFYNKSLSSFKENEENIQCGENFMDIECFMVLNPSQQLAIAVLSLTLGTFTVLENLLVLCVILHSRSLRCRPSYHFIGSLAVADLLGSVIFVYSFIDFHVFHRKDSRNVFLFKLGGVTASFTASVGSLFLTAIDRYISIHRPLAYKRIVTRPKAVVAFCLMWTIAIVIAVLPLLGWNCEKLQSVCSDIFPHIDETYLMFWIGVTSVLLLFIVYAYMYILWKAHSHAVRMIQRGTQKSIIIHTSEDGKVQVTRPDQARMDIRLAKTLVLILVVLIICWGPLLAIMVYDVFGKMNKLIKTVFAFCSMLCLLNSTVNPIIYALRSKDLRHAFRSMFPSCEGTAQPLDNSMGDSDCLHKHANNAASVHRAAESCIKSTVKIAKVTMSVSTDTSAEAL

CC(C)(C)c1cc(NC(=O)CCc2nc(-c3ccc(Br)nc3)no2)no1 [Compound 1a, 3-(3-(6-Bromopyridin-3-yl)-1,2,4-oxadiazol-5-yl)-N-(5-tert-butylisoxazol-3-yl)propanamide]
Binding to hCB2 in words (hCB2): high affinity | Ki (hCB2; [2]): 14.4 nM

CC(C)(C)c1cc(NC(=O)CCc2nc(-c3ccc(F)nc3)no2)no1 [Compound 1b, 3-(3-(6-Fluoropyridin-3-yl)-1,2,4-oxadiazol-5-yl)-N-(5-tert-butylisoxazol-3-yl)propanamide]
Binding to hCB2 in words (hCB2): low affinity | Ki (hCB2; hCB2 expressed in CHO cells, 0.5 nM [3H]CP55,940, Cheng-Prusoff, read-out: Affinity (Ki) towards hCB2): > 100000 nM

N#Cc1cc(F)ccc1-c1noc(CCC(=O)Nc2cnc3ccccc3c2)n1 [Compound 2a, 3-(3-(2-Cyano-4-fluorophenyl)-1,2,4-oxadiazol-5-yl)-N-(quinolin-3-yl)propanamide]
Binding to hCB1 in words (hCB1; hCB1-CHO): could not be observed | Fold lower hCB2 affinity (hCB2; in comparison to 6a): approximately 100 fold | Ki (hCB2; [2]): 722 nM

O=C(CCc1nc(-c2ccc(F)nc2)no1)Nc1cnc2ccccc2c1 [Compound 2b, 3-(3-(6-Fluoropyridin-3-yl)-1,2,4-oxadiazol-5-yl)-N-(quinolin-3-yl)propanamide]
Binding to hCB1 in words (hCB1; hCB1-CHO): could not be observed | Binding to hCB2 in words (hCB2): low affinity | Ki (hCB2; [2]): 2290 nM

O=C(CCc1nc(-c2ccc(Br)nc2)no1)Nc1cnc2ccccc2c1 [Compound 2c, 3-(3-(6-Bromopyridin-3-yl)-1,2,4-oxadiazol-5-yl)-N-(quinolin-3-yl)propanamide]
Binding to hCB1 in words (hCB1; hCB1-CHO): could not be observed | Binding to hCB2 in words (hCB2): low affinity | Ki (hCB2; [2]): > 100000 nM

CCn1ccc2cc(NC(=O)CCc3nc(-c4ccc(F)nc4)no3)ccc21 [Compound 3b, 3-(3-(6-Fluoropyridin-3-yl)-1,2,4-oxadiazol-5-yl)-N-(1-ethyl-1H-indol-5-yl)-propanamide]
Binding to hCB2 in words (hCB2): low affinity | Ki (hCB2; [2]): > 100000 nM

O=C(CCc1nc(-c2ccc(F)cc2Br)no1)Nc1ccc2[nH]c3ccccc3c2c1 [Compound 4e, 3-(3-(2-Bromo-4-fluorophenyl)-1,2,4-oxadiazol-5-yl)-N-(9H-carbazol-3-yl)propanamide]
Binding to hCB2 in words (hCB2): no binding | Ki (hCB2; [2]): > 100000 nM

Cn1c2ccccc2c2cc(NC(=O)CCc3nc(-c4ccc(F)cc4Br)no3)ccc21 [Compound 5e, 3-(3-(2-Bromo-4-fluorophenyl)-1,2,4-oxadiazol-5-yl)-N-(9-methyl-9H-carbazol-3-yl)propanamide]
Ki (hCB2; [2]): 250 nM

CCn1c2ccccc2c2cc(NC(=O)CCc3nc(-c4ccc(F)nc4)no3)ccc21 [Compound 6b, 3-(3-(6-Fluoropyridin-3-yl)-1,2,4-oxadiazol-5-yl)-N-(9-ethyl-9H-carbazol-3-yl)propanamide]
Ki (hCB1; [3]): 1560 nM | Binding to hCB2 in words (hCB2): low affinity | Selectivity, pKi (CB2) – pKi (CB1) (hCB2; hCB2 versus hCB1): 1.06 | Ki (hCB2; [2]): 135 nM

CCn1c2ccccc2c2cc(NC(=O)CCc3nc(-c4ccc(Br)nc4)no3)ccc21 [Compound 6c, 3-(3-(6-Bromopyridin-3-yl)-1,2,4-oxadiazol-5-yl)-N-(9-ethyl-9H-carbazol-3-yl)propanamide]
Binding to hCB2 in words (hCB2): low affinity | Ki (hCB2; [2]): 1920 nM

CCn1c2ccccc2c2cc(NC(=O)CCc3nc(-c4ccc([N+](=O)[O-])cc4F)no3)ccc21 [Compound 6d, 3-(3-(2-Fluoro-4-nitrophenyl)-1,2,4-oxadiazol-5-yl)-N-(9-ethyl-9H-carbazol-3-yl)propanamide]
Ki (hCB1; [3]): 7470 nM | Ki (hCB2): 12.5 nM | Selectivity, pKi (CB2) – pKi (CB1) (hCB2; hCB2 versus hCB1): 2.78

CCn1c2ccccc2c2cc(NC(=O)CCc3nc(-c4ccc(F)cc4Br)no3)ccc21 [Compound 6e, 3-(3-(2-Bromo-4-fluorophenyl)-1,2,4-oxadiazol-5-yl)-N-(9-ethyl-9H-carbazol-3-yl)propanamide]
Ki (hCB1; hCB1-CHO, read-out: Ki hCB1): > 1000 nM | Selectivity over hCB1 (hCB2; hCB2 versus hCB1): more than 1,000 fold | receptor occupancy at 1 µM ([1]; read-out: Fractional occupancy of [3H]CP55,940 binding sites calculated by Gaddum equation): 97%

CCn1c2ccccc2c2cc(NC(=O)CCc3nc(-c4ccc([N+](=O)[O-])cc4C#N)no3)ccc21 [Compound 6f, 3-(3-(2-Cyano-4-nitrophenyl)-1,2,4-oxadiazol-5-yl)-N-(9-ethyl-9H-carbazol-3-yl)propanamide]
Ki (hCB2): 5.89 nM

CCn1c2ccccc2c2cc(NC(=O)CCc3nc(-c4ccc([N+](=O)[O-])cc4Br)no3)ccc21 [Compound 6g, 3-(3-(2-Bromo-4-nitrophenyl)-1,2,4-oxadiazol-5-yl)-N-(9-ethyl-9H-carbazol-3-yl)propanamide]
Ki (hCB1; [3]): 397 nM | Ki (hCB2): 2.38 nM | Selectivity, pKi (CB2) – pKi (CB1) (hCB2; hCB2 versus hCB1): 2.22

CCn1c2ccccc2c2cc(NC(=O)CCc3nc(-c4ccc(N)cc4F)no3)ccc21 [Compound 6i, 3-(3-(4-Amino-2-fluorophenyl)-1,2,4-oxadiazol-5-yl)-N-(9-ethyl-9H-carbazol-3-yl)propanamide]
Ki (hCB2; [2]): > 100000 nM

CCn1c2ccccc2c2cc(NC(=O)CCc3nc(-c4ccc(F)cc4O)no3)ccc21 [Compound 6j, 3-(3-(4-Fluoro-2-hydroxyphenyl)-1,2,4-oxadiazol-5-yl)-N-(9-ethyl-9H-carbazol-3-yl)propanamide]
Ki (hCB2; [2]): 5710 nM

CCn1c2ccccc2c2cc(NC(=O)CCc3nc(-c4ccc(F)cc4OCCF)no3)ccc21 [Compound 6k, 3-(3-(4-Fluoro-2-(2-fluoroethoxy)phenyl)-1,2,4-oxadiazol-5-yl)-N-(9-ethyl-9H-carbazol-3-yl)-propanamide]
Ki (hCB2; [2]): 3190 nM

CCn1c2ccccc2c2cc(NC(=O)CCc3nc(-c4ccc(F)cc4OC)no3)ccc21 [Compound 6l, 3-(3-(4-Fluoro-2-methoxyphenyl)-1,2,4-oxadiazol-5-yl)-N-(9-ethyl-9H-carbazol-3-yl)-propanamide]
Ki (hCB2; [2]): 223 nM

CCn1c2ccccc2c2cc(NC(=O)CCc3nc(-c4ccc(OC)cc4Br)no3)ccc21 [Compound 6m, 3-(3-(2-Bromo-4-methoxyphenyl)-1,2,4-oxadiazol-5-yl)-N-(9-ethyl-9H-carbazol-3-yl)propanamide]
Ki (hCB2; [2]): > 100000 nM

O=C(CCc1nc(-c2ccc(F)cc2F)no1)Nc1cn(Cc2ccccc2)c2ccccc12 [Compound 7h, 3-(3-(2,4-Difluorophenyl)-1,2,4-oxadiazol-5-yl)-N-(1-benzyl-1H-indol-3-yl)-propanamide]
Binding to hCB1 in words (hCB1; hCB1-CHO): Weak affinity | Ki (hCB1; [3]): 6010 nM | Binding to hCB2 in words (hCB2): lost | Ki (hCB2; [2]): > 100000 nM

Cc1c(C(=O)NN2CCCCC2)nn(-c2ccc(Cl)cc2Cl)c1-c1ccc(Cl)cc1 [SR141716A]
Specific CP55,940 binding remaining ([1]; 1 μM compound, 6 nM [3H]CP55,940, mouse spleen): 94% | Displacement of the specific binding of 6 nM [3H]CP55,940 ([1]; 1 μM compound): nearly no displacement

CCCCCCC(C)(C)c1ccc([C@@H]2C[C@H](O)CC[C@H]2CCCO)c(O)c1 [^3H]CP55,940]
Density of specific binding sites ([1]; 6 nM [3H]CP55,940, mouse spleen): 150 ± 25 fmol/mg wet weight | Specific binding as share of total binding ([1]; mouse spleen autoradiography): approximately 90%

SR144528
Displacement of the specific binding of 6 nM [3H]CP55,940 ([1]; 1 μM compound): 78%
